Patent US20060035291A1, “Method of detecting cellular immunity and application thereof to drugs” (priority 2001, published 2006)

Test system: HLA-A2 restricted antigen peptide-specific T cells (CTL precursors) in PBMCs
Assay: IFN-γ production (ELISA) by peptide-stimulated HLA-A2 positive PBMCs in response to peptide-sensitized T2 cells
Assay type: cell-based, human
Set-up: production level of IFN-γ: unit not given here
Settings: for production level of IFN-γ: average of 4, HIV peptide background subtracted; for IFN-γ production 1st well / IFN-γ production 2nd well / IFN-γ production 3rd well / IFN-γ production 4th well: before vaccination
[1] = HD6, HLA-A2 positive healthy donor
[2] = HD7, HLA-A2 positive healthy donor
[3] = HD8, HLA-A2 positive healthy donor
[4] = HD9, HLA-A2 positive healthy donor
[5] = HD10, HLA-A2 positive healthy donor
[6] = HLA-A2 positive cervical cancer patient, response to HIV-T2 cells subtracted
[7] = HLA-A2 positive prostate cancer patient
[8] = Pt. 11, HLA-A2 positive pancreatic cancer, ELISA sensitivity limit 10 pg/ml
[9] = Pt. 12, HLA-A2 positive pancreatic cancer, ELISA sensitivity limit 10 pg/ml
[10] = Pt. 13, HLA-A2 positive pancreatic cancer, ELISA sensitivity limit 10 pg/ml
[11] = Pt. 14, HLA-A2 positive pancreatic cancer, ELISA sensitivity limit 10 pg/ml
[12] = Pt. 15, HLA-A2 positive pancreatic cancer, ELISA sensitivity limit 10 pg/ml

ASLDSDPWV [WHSC2103]
production level of IFN-γ [1]: 0
production level of IFN-γ [2]: 0
production level of IFN-γ [3]: 0
production level of IFN-γ [4]: 0
production level of IFN-γ [5]: 96
IFN-γ production 1st well [6]: 74 pg/well
IFN-γ production 2nd well [6]: <0 pg/well
IFN-γ production 3rd well [6]: <0 pg/well
IFN-γ production 4th well [6]: <0 pg/well
IFN-γ production 1st well [7]: 3 pg/well
IFN-γ production 2nd well [7]: 0 pg/well
IFN-γ production 3rd well [7]: <0 pg/well
IFN-γ production 4th well [7]: <0 pg/well
production level of IFN-γ [8]: 186
production level of IFN-γ [9]: 154
production level of IFN-γ [10]: 0
production level of IFN-γ [11]: 38
production level of IFN-γ [12]: 0

LLQAEAPRL [SART3302]
production level of IFN-γ [1]: 0
production level of IFN-γ [2]: 0
production level of IFN-γ [3]: 51
production level of IFN-γ [4]: 70
production level of IFN-γ [5]: 0
IFN-γ production 1st well [6]: <0 pg/well
IFN-γ production 2nd well [6]: <0 pg/well
IFN-γ production 3rd well [6]: 8 pg/well
IFN-γ production 4th well [6]: <0 pg/well
IFN-γ production 1st well [7]: <0 pg/well
IFN-γ production 2nd well [7]: <0 pg/well
IFN-γ production 3rd well [7]: <0 pg/well
IFN-γ production 4th well [7]: <0 pg/well
production level of IFN-γ [8]: 32
production level of IFN-γ [9]: 0
production level of IFN-γ [10]: 226
production level of IFN-γ [11]: 8
production level of IFN-γ [12]: 0

ILGELREKV [WHSC2141]
production level of IFN-γ [1]: 0
production level of IFN-γ [2]: 0
production level of IFN-γ [3]: 0
production level of IFN-γ [4]: 12
production level of IFN-γ [5]: 260
IFN-γ production 1st well [6]: 10 pg/well
IFN-γ production 2nd well [6]: <0 pg/well
IFN-γ production 3rd well [6]: <0 pg/well
IFN-γ production 4th well [6]: <0 pg/well
IFN-γ production 1st well [7]: 6 pg/well
IFN-γ production 2nd well [7]: 14 pg/well
IFN-γ production 3rd well [7]: <0 pg/well
IFN-γ production 4th well [7]: 9 pg/well
production level of IFN-γ [8]: 0
production level of IFN-γ [9]: 47
production level of IFN-γ [10]: 0
production level of IFN-γ [11]: 659
production level of IFN-γ [12]: 38

KLKHYGPGWV [CypB129]
production level of IFN-γ [1]: 0
production level of IFN-γ [2]: 0
production level of IFN-γ [3]: 31
production level of IFN-γ [4]: 29
production level of IFN-γ [5]: 6
production level of IFN-γ [8]: 43
production level of IFN-γ [9]: 0
production level of IFN-γ [10]: 0
production level of IFN-γ [11]: 0
production level of IFN-γ [12]: 0

VLEGMEW [CypB172]
IFN-γ production 1st well [6]: 22 pg/well
IFN-γ production 2nd well [6]: <0 pg/well
IFN-γ production 3rd well [6]: <0 pg/well
IFN-γ production 4th well [6]: <0 pg/well
IFN-γ production 1st well [7]: <0 pg/well
IFN-γ production 2nd well [7]: 0 pg/well
IFN-γ production 3rd well [7]: <0 pg/well
IFN-γ production 4th well [7]: <0 pg/well

RLQEWCSVI [UBE2V43]
production level of IFN-γ [1]: 980
production level of IFN-γ [2]: 31
production level of IFN-γ [3]: 0
production level of IFN-γ [4]: 3
production level of IFN-γ [5]: 56
IFN-γ production 1st well [6]: 13 pg/well
IFN-γ production 2nd well [6]: 11 pg/well
IFN-γ production 3rd well [6]: <0 pg/well
IFN-γ production 4th well [6]: <0 pg/well
IFN-γ production 1st well [7]: <0 pg/well
IFN-γ production 2nd well [7]: <0 pg/well
IFN-γ production 3rd well [7]: <0 pg/well
IFN-γ production 4th well [7]: <0 pg/well
production level of IFN-γ [8]: 0
production level of IFN-γ [9]: 0
production level of IFN-γ [10]: 0
production level of IFN-γ [11]: 7
production level of IFN-γ [12]: 0

GLLFLHTRT [ppMAPkkk294]
production level of IFN-γ [1]: 0
production level of IFN-γ [2]: 58
production level of IFN-γ [3]: 0
production level of IFN-γ [4]: 0
production level of IFN-γ [5]: 86
IFN-γ production 1st well [6]: 133 pg/well
IFN-γ production 2nd well [6]: <0 pg/well
IFN-γ production 3rd well [6]: <0 pg/well
IFN-γ production 4th well [6]: <0 pg/well
IFN-γ production 1st well [7]: <0 pg/well
IFN-γ production 2nd well [7]: 34 pg/well
IFN-γ production 3rd well [7]: <0 pg/well
IFN-γ production 4th well [7]: <0 pg/well
production level of IFN-γ [8]: 179
production level of IFN-γ [9]: 170
production level of IFN-γ [10]: 0
production level of IFN-γ [11]: 0
production level of IFN-γ [12]: 0

NVLHFFNAPL [HNRPL501]
production level of IFN-γ [1]: 0
production level of IFN-γ [2]: 0
production level of IFN-γ [3]: 0
production level of IFN-γ [4]: 0
production level of IFN-γ [5]: 0
IFN-γ production 1st well [6]: 24 pg/well
IFN-γ production 2nd well [6]: <0 pg/well
IFN-γ production 3rd well [6]: <0 pg/well
IFN-γ production 4th well [6]: 18 pg/well
IFN-γ production 1st well [7]: <0 pg/well
IFN-γ production 2nd well [7]: 7 pg/well
IFN-γ production 3rd well [7]: <0 pg/well
IFN-γ production 4th well [7]: <0 pg/well
production level of IFN-γ [8]: 0
production level of IFN-γ [9]: 0
production level of IFN-γ [10]: 14
production level of IFN-γ [11]: 0
production level of IFN-γ [12]: 13

LIADFLSGL [UBE2V85]
production level of IFN-γ [1]: 0
production level of IFN-γ [2]: 0
production level of IFN-γ [3]: 0
production level of IFN-γ [4]: 0
production level of IFN-γ [5]: 1226
IFN-γ production 1st well [6]: 7 pg/well
IFN-γ production 2nd well [6]: 34 pg/well
IFN-γ production 3rd well [6]: <0 pg/well
IFN-γ production 4th well [6]: <0 pg/well
IFN-γ production 1st well [7]: 0 pg/well
IFN-γ production 2nd well [7]: <0 pg/well
IFN-γ production 3rd well [7]: 7 pg/well
IFN-γ production 4th well [7]: <0 pg/well
production level of IFN-γ [8]: 0
production level of IFN-γ [9]: 1
production level of IFN-γ [10]: 13
production level of IFN-γ [11]: 7
production level of IFN-γ [12]: 43

DLLSHAFFA [ppMAPkkk432]
production level of IFN-γ [1]: 0
production level of IFN-γ [2]: 0
production level of IFN-γ [3]: 0
production level of IFN-γ [4]: 0
production level of IFN-γ [5]: 73
IFN-γ production 1st well [6]: 137 pg/well
IFN-γ production 2nd well [6]: 12 pg/well
IFN-γ production 3rd well [6]: <0 pg/well
IFN-γ production 4th well [6]: <0 pg/well
IFN-γ production 1st well [7]: 43 pg/well
IFN-γ production 2nd well [7]: 64 pg/well
IFN-γ production 3rd well [7]: <0 pg/well
IFN-γ production 4th well [7]: 5 pg/well
production level of IFN-γ [8]: 42
production level of IFN-γ [9]: 57
production level of IFN-γ [10]: 58
production level of IFN-γ [11]: 0
production level of IFN-γ [12]: 0

KLVERLGAA [lck246]
production level of IFN-γ [1]: 0
production level of IFN-γ [2]: 21
production level of IFN-γ [3]: 29
production level of IFN-γ [4]: 26
production level of IFN-γ [5]: 0
IFN-γ production 1st well [6]: 19 pg/well
IFN-γ production 2nd well [6]: <0 pg/well
IFN-γ production 3rd well [6]: <0 pg/well
IFN-γ production 4th well [6]: <0 pg/well
IFN-γ production 1st well [7]: <0 pg/well
IFN-γ production 2nd well [7]: <0 pg/well
IFN-γ production 3rd well [7]: <0 pg/well
IFN-γ production 4th well [7]: <0 pg/well
production level of IFN-γ [8]: 74
production level of IFN-γ [9]: 16
production level of IFN-γ [10]: 24
production level of IFN-γ [11]: 0
production level of IFN-γ [12]: 0

ALVEFEDVL [HNRPL140]
production level of IFN-γ [1]: 967
production level of IFN-γ [2]: 0
production level of IFN-γ [3]: 0
production level of IFN-γ [4]: 0
production level of IFN-γ [5]: 99
IFN-γ production 1st well [6]: 24 pg/well
IFN-γ production 2nd well [6]: <0 pg/well
IFN-γ production 3rd well [6]: 13 pg/well
IFN-γ production 4th well [6]: 40 pg/well
IFN-γ production 1st well [7]: 16 pg/well
IFN-γ production 2nd well [7]: <0 pg/well
IFN-γ production 3rd well [7]: <0 pg/well
IFN-γ production 4th well [7]: <0 pg/well
production level of IFN-γ [8]: 0
production level of IFN-γ [9]: 63
production level of IFN-γ [10]: 0
production level of IFN-γ [11]: 317
production level of IFN-γ [12]: 39

DVWSFGILL [lck422]
production level of IFN-γ [1]: 0
production level of IFN-γ [2]: 11
production level of IFN-γ [3]: 23
production level of IFN-γ [4]: 60
production level of IFN-γ [5]: 26
IFN-γ production 1st well [6]: <0 pg/well
IFN-γ production 2nd well [6]: <0 pg/well
IFN-γ production 3rd well [6]: <0 pg/well
IFN-γ production 4th well [6]: 8 pg/well
IFN-γ production 1st well [7]: 1 pg/well
IFN-γ production 2nd well [7]: <0 pg/well
IFN-γ production 3rd well [7]: <0 pg/well
IFN-γ production 4th well [7]: <0 pg/well
production level of IFN-γ [8]: 20
production level of IFN-γ [9]: 81
production level of IFN-γ [10]: 10
production level of IFN-γ [11]: 71
production level of IFN-γ [12]: 0

RLAEYQAYI [SART3309]
production level of IFN-γ [1]: 0
production level of IFN-γ [2]: 127
production level of IFN-γ [3]: 30
production level of IFN-γ [4]: 25
production level of IFN-γ [5]: 0
IFN-γ production 1st well [6]: <0 pg/well
IFN-γ production 2nd well [6]: <0 pg/well
IFN-γ production 3rd well [6]: 9 pg/well
IFN-γ production 4th well [6]: 28 pg/well
IFN-γ production 1st well [7]: <0 pg/well
IFN-γ production 2nd well [7]: <0 pg/well
IFN-γ production 3rd well [7]: <0 pg/well
IFN-γ production 4th well [7]: <0 pg/well
production level of IFN-γ [8]: 116
production level of IFN-γ [9]: 0
production level of IFN-γ [10]: 19
production level of IFN-γ [11]: 3
production level of IFN-γ [12]: 27
